Key:
[1] = biological target: T1, CFTR in F508del/MF-HBE cells (Homo sapiens, UniProt P13569, DEL508-508); assay: Ussing chamber assay of CFTR-mediated short-circuit currents (potentiator activity); assay type: cell-based; conditions: 18-24 hours at 37° C. with 10 μM Compound VII, 20% human serum, CFTR-mediated ISC
T1 construct: human bronchial epithelial (HBE) cells derived from CF subjects; endogenous in cells; host or cells: primary human bronchial epithelial cells from CF subjects (F508del/MF-HBE)
Experimental: Ussing chamber experiments were performed using human bronchial epithelial (HBE) cells derived from CF subjects heterozygous for F508del and a minimal function CFTR mutation (F508del/MF-HBE) and cultured as previously described (Neuberger T, Burton B, Clark H, Van Goor F Methods Mol Biol 2011:741:39-54). After four days the apical media was removed, and the cells were grown at an air liquid interface for >14 days prior to use.
To isolate the CFTR-mediated short-circuit (ISC) current, F508del/MF-HBE grown on Costar® Snapwell™ cell culture inserts were mounted in an Ussing chamber and the transepithelial ISC was measured under voltage-clamp recording conditions (Vhold=0 mV) at 37° C. The basolateral solution contained (in mM) 145 NaCl, 0.83 K2HPO4, 3.3 KH2PO4, 1.2 MgCl2, 1.2 CaCl2), 10 Glucose, 10 HEPES (pH adjusted to 7.4 with NaOH) and the apical solution contained (in mM) 145 NaGluconate, 1.2 MgCl2, 1.2 CaCl2), 10 glucose, 10 HEPES (pH adjusted to 7.4 with NaOH) and 30 μM amiloride to block the epithelial sodium channel. […] The CFTR-mediated ISC (uA/cm2) for each condition was determined from the peak forskolin response to the steady-state current following inhibition.
The activity of the CFTR potentiator compounds on the CFTR-mediated ISC was determined in Ussing chamber studies as described above. […]

[2] = First-in-human (FIH) clinical study of safety, tolerability and PK in healthy subjects; assay type: in vivo; conditions: single doses 3 mg to 1500 mg (Part A), total daily doses 10 mg to 300 mg for ten days (Part B), Part C, suspension, all cohorts
Experimental: In a first-in-human (FIH) clinical study of Compound I, the safety, tolerability, and pharmacokinetics (PK) of Compound I in healthy subjects was evaluated. Assessments of the relative bioavailability (BA) of Suspension 2 of Compound I compared to Suspension 1 of Compound I, food effect, and drug drug interactions (DDIs) between Compound I and itraconazole and midazolam were conducted.
This first-in-human (FIH) study of Compound I included three parts (Parts A, B, and C).
Approximately 154 healthy adult subjects were planned to be enrolled in planned cohorts. Approximately 76 subjects were planned to be enrolled in Part A (excluding optional Part A Cohorts), approximately 48 subjects in Part B (excluding optional Part B Cohorts), and approximately 30 subjects in Part C. There was no pre-specified ratio of males to females, but reasonable effort was made to enroll females of non-childbearing potential in all dosing cohorts.
Six dose escalation cohorts were planned for Part A, and five dose escalation cohorts were planned for Part B. Additional cohorts (A7 and A8) in Part A were enrolled based on data from previous cohorts. […]
Food effect was evaluated in an open label, single sequence Cohort A9 to evaluate the effect of food on the PK of Compound I based on emerging PK data during dose escalation. […]

T1 sequence (P13569 with tags, fused parts or gaps DEL508-508): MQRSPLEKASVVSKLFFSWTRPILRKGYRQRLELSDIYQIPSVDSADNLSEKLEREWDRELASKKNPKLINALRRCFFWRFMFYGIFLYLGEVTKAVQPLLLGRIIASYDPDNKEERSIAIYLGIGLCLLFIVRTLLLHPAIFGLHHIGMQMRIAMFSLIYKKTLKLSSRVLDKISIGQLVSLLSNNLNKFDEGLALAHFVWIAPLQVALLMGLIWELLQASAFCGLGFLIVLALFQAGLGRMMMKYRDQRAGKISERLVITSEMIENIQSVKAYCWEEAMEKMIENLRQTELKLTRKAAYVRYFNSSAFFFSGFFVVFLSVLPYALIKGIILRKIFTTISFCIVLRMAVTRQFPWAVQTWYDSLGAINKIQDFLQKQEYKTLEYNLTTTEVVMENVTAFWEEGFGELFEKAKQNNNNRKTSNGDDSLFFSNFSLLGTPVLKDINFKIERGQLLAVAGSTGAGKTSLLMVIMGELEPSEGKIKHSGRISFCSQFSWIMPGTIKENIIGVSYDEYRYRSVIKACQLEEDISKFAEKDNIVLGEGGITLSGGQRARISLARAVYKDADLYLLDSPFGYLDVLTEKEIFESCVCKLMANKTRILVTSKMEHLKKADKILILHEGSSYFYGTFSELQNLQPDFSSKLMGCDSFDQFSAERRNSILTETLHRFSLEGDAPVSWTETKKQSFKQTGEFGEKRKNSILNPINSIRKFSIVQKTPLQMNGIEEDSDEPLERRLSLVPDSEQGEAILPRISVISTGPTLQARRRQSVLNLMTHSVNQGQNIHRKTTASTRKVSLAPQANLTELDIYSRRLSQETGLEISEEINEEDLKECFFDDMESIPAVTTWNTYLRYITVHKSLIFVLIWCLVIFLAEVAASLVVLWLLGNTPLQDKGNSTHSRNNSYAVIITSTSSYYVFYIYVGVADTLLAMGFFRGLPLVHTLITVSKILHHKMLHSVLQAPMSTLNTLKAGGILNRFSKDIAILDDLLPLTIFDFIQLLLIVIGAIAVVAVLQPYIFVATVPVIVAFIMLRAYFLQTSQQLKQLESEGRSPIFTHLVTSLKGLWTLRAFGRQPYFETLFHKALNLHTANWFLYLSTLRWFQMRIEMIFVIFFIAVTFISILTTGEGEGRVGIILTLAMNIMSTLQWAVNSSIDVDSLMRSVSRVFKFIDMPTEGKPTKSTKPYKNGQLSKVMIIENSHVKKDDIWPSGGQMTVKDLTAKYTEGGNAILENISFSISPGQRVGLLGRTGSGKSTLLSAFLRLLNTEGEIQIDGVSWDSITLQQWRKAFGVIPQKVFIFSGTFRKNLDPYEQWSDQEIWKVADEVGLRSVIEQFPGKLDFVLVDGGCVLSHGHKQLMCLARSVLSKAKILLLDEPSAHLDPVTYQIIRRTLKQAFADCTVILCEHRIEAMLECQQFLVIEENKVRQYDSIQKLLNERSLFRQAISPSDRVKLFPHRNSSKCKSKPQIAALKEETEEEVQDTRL

In the case of `CC1(C)CCCCC[C@](O)(C(F)(F)F)C2=NN=C(O2)c2nc(c(C(F)(F)F)cc2N)N1` [Compound I, (6R)-17-amino-12,12-dimethyl-6,15-bis(trifluoromethyl)-19-oxa-3,4,13,18-tetrazatricyclo[12.3.1.12,5]nonadeca-1 (18),2,4,14,16-pentaen-6-ol], the EC50 [1] is reported as under 500 nM and the safety and tolerability [2] is reported as “generally safe and well-tolerated”.

— patent US20250332151A1, “METHODS OF TREATMENT FOR CYSTIC FIBROSIS” (Vertex Pharmaceuticals Incorporated, priority 2022, published 2025)
